Target: Bovine serum albumin (Bos taurus, UniProt P02769)
Assay: Bovine serum albumin (BSA) protein denaturation assay, in vitro anti-inflammatory activity
Type: biochemical
Method: Bovine Serum Albumin Assay (BSA) In vitro-inflammatory activities of the tested samples were determined using a modified method of the BSA assay reported by Williams et al. BSA solution (0.4%, w/v) was prepared in Tris Buffered Saline. The pH was adjusted to 6.4 with glacial acetic acid. Different dilutions of 20, 40, 60, 80, and 100 μg/mL of 7-(4-((5-(2-bromobenzylideneamino)-2-thioxo-1,3,4-thiadiazol-3(2H)-yl)methyl)piperazin-1-yl)-1-cyclopropyl-6-fluoro-4-oxo-1,4-dihydroquinoline-3-carboxylic acid (IV) the stock solutions were added to test tubes containing 1 mL of 0.4%, w/v BSA buffer solution. Both negative (solvent) and positive (aspirin) controls were assayed in a similar manner. The solutions were then heated in a water bath at 72° C. for 10 minutes and cooled for 20 minutes under laboratory conditions. The turbidity of the solutions (level of protein precipitation) was measured at 660 nm in Spectrophotometer (V-770 UV-Visible/NIR Spectrophotometer). The percentage inhibition of precipitation (protein denaturation) was determined relative to the negative control using the following equation: [formula] % Anti-Denaturation Activity=% Inhibition of Protein Denaturation=% Anti-inflammatory Activity

[1] = read-out: % Inhibition of protein denaturation (Bovine serum albumin)

Bovine serum albumin, sequence (P02769 25-607): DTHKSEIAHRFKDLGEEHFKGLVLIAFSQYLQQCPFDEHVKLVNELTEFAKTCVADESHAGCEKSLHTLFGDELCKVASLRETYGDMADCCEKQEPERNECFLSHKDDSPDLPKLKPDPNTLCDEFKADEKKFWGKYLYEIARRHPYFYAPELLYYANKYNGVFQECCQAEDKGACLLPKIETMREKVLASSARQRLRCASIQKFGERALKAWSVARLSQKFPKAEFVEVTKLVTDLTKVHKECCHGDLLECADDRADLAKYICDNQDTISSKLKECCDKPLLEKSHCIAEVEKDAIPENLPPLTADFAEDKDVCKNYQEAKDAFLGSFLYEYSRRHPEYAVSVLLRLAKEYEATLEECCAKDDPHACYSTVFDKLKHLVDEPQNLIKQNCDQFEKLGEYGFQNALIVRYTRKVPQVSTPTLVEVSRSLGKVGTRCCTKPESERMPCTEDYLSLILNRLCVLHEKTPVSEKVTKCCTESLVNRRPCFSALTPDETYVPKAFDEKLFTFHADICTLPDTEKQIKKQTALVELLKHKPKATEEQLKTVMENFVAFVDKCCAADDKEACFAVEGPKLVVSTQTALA

In the case of `O=C(O)c1cn(C2CC2)c2cc(N3CCN(Cn4nc(N=Cc5ccccc5Br)sc4=S)CC3)c(F)cc2c1=O` [IV, 7-(4-((5-(2-bromobenzylideneamino)-2-thioxo-1,3,4-thiadiazol-3(2H)-yl)methyl)piperazin-1-yl)-1-cyclopropyl-6-fluoro-4-oxo-1,4-dihydroquinoline-3-carboxylic acid], the “in vitro anti-inflammatory activity (in words)” value (BSA denaturation assay) was “considerable anti-inflammatory effect”, the inhibition at 20 µg/mL [1] was 62.6% and the inhibition at 40 µg/mL [1] was 73.1%. The inhibition at 60 µg/mL [1] was 75.2%, the inhibition at 80 µg/mL [1] was 82% and the inhibition at 100 µg/mL [1] was 84.8%.
